Results as given in ChEMBL document CHEMBL3875144, “Novel fluorinated pyrrolomycins as potent anti-staphylococcal biofilm agents: Design, synthesis, pharmacokinetics and antibacterial activities” (Eur J Med Chem, 2016).
Converted amounts (≈) assume the structure as drawn. The source made the active and inactive calls. The rule behind the calls is not given here.

Assays:
[1] = Antibacterial activity against methicillin-resistant Staphylococcus aureus USA300 JE2 incubated for 20 to 24 hrs by broth microdilution assay; format: functional, Staphylococcus aureus subsp. aureus USA300
[2] = Bactericidal activity against methicillin-resistant Staphylococcus aureus USA300 JE2 incubated up to 24 hrs; format: functional, Staphylococcus aureus subsp. aureus USA300; details: JE2, 24 h
[3] = system: Staphylococcus aureus subsp. aureus USA300; experiment: Antibiofilm activity against methicillin-resistant Staphylococcus aureus USA300 JE2 at 32 ug/ml measured at 24 hrs post dose relative to control; format: functional
[4] = system: Staphylococcus aureus subsp. aureus USA300; experiment: Antibiofilm activity against methicillin-resistant Staphylococcus aureus USA300 JE2 at 32 ug/ml measured at 48 hrs post dose relative to control; format: functional
[5] = Cytotoxicity against human HeLa cells assessed as decrease in cell viability measured after 24 hrs by MTS assay; format: toxicity, cell-based
[6] = Selectivity index, ratio of IC50 for cytotoxicity against human HeLa cells to MIC for antibacterial activity against methicillin-resistant Staphylococcus aureus USA300 JE2; format: toxicity, cell-based; details: read-out: Selectivity Index
[7] = system: Staphylococcus aureus subsp. aureus USA300; experiment: Antibiofilm activity against methicillin-resistant Staphylococcus aureus USA300 JE2 assessed as disruption of preformed biofilms at 8 ug/ml within 5 days; format: functional
[8] = system: Staphylococcus aureus subsp. aureus USA300; experiment: Antibiofilm activity against methicillin-resistant Staphylococcus aureus USA300 JE2 at 8 ug/ml measured at 24 hrs post dose relative to control; format: functional
[9] = system: Staphylococcus aureus subsp. aureus USA300; experiment: Antibiofilm activity against methicillin-resistant Staphylococcus aureus USA300 JE2 at 8 ug/ml measured at 48 hrs post dose relative to control; format: functional
[10] = Tmax in Balc/c mouse at 10 mg/kg administered via oral gavage by LC-MS/MS method; format: ADME, organism-based; details: in vivo
[11] = Plasma concentration in Balc/c mouse at 1 mg/kg, iv up to 72 hrs by LC-MS/MS method; format: ADME, organism-based
[12] = Plasma concentration in Balc/c mouse at 10 mg/kg administered via oral gavage up to 72 hrs by LC-MS/MS method; format: ADME, organism-based
[13] = system: Staphylococcus aureus subsp. aureus USA300; experiment: Bactericidal activity against methicillin-resistant Staphylococcus aureus USA300 JE2 at 8 ug/ml incubated up to 24 hrs relative to control; format: functional

Row | SMILES | MIC [1] [µg/mL] | IC50 at 24 h [5] [µM] | selectivity ratio [6] | further results
1 | O=C(c1cc(Br)c[nH]1)c1cc(Cl)cc(Cl)c1O | > 4 |  |  | 
2 | O=C(c1ccc[nH]1)c1cc(F)cc(F)c1O | > 4 |  |  | 
3 | COc1c(F)cc(F)cc1C(=O)c1ccc[nH]1 | > 4 |  |  | 
4 | CN[C@H](CC(C)C)C(=O)N[C@H]1C(=O)N[C@@H](CC(N)=O)C(=O)N[C@H]2C(=O)N[C@H]3C(=O)N[C@H](C(=O)N[C@H](C(=O)O)c4cc(O)cc(O)c4-c4cc3ccc4O)[C@H](O)c3ccc(c(Cl)c3)Oc3cc2cc(c3O[C@@H]2O[C@H](CO)[C@@H](O)[C@H](O)[C@H]2O[C@H]2C[C@](C)(N)[C@H](O)[C@H](C)O2)Oc2ccc(cc2Cl)[C@H]1O [VANCOMYCIN] | 2 (≈ 1.38 µM) |  |  | MBC [2]: 8 µg/mL (≈ 5.52 µM); Activity [3]: 11%; Activity [4]: 39%
5 | COc1c(F)cc(F)cc1C(=O)c1c(Br)c(Br)c(Br)n1C | > 4 |  |  | 
6 | O=C(c1cc(F)cc(F)c1O)c1[nH]c(Br)c(Br)c1Br | 0.17 (≈ 0.37 µM) | > 46 | > 275 | 
7 | O=C(c1ccccc1O)c1[nH]c(Cl)c(Cl)c1-n1c(C(=O)c2cc(F)ccc2O)cc(Cl)c1Cl | 0.19 (≈ 0.36 µM) | > 52.8 | > 280 | 
8 | O=C(c1cc(Br)c(F)[nH]1)c1cc(Cl)cc(Cl)c1O | 0.073 (≈ 0.207 µM) | > 35.3 | > 484 | MBC [2]: 4 µg/mL (≈ 11.3 µM); Activity [7]: Active; Activity [8]: 84%; Activity [9]: 97%; Tmax [10]: 15 min; concentration at 72 h [11]: ≥ 0.8 ng/mL; concentration at 72 h [12]: ≥ 0.8 ng/mL
9 | O=C(c1cc(Cl)cc(Cl)c1O)c1[nH]c(F)c(Br)c1Br | 0.19 (≈ 0.44 µM) | > 43.2 | > 229 | 
10 | Cn1c(Br)c(Br)c(Br)c1C(=O)c1cc(F)cc(F)c1O | > 4 |  |  | 
11 | O=C(c1ccc[nH]1)c1cc(Cl)cc(Cl)c1O | > 4 |  |  | 
12 | O=C(c1ccccc1O)c1[nH]c(Cl)c(Cl)c1-n1c(C(=O)c2ccc(Cl)cc2O)cc(Cl)c1Cl | 0.078 (≈ 0.143 µM) | > 40.9 | > 524 | 
13 | COc1c(F)cc(F)cc1C(=O)c1[nH]c(Br)c(Br)c1Br | 3 (≈ 6.33 µM) |  |  | 
14 | O=C(c1cc(Br)c(Br)[nH]1)c1cc(Cl)cc(Cl)c1O | 0.073 (≈ 0.176 µM) | > 41.4 | > 567 | MBC [2]: 8 µg/mL (≈ 19.3 µM); Activity [13]: 92.5%
